In brackets after ≈: the same amount, converted by molar mass.
Columns and labels:
[1] = Population PK model of oral enpatoran, phase I healthy participant study; format: in vivo, human; details: interindividual variability, PopPK model
[2] = tested on: ex vivo-stimulated IL-6 secretion (TLR7/8); format: in vivo, human
[3] = tested on: ex vivo-stimulated IFN-α secretion (TLR7/8); format: in vivo, human
[4] = tested on: BXSB-Yaa mouse model of lupus; details: cited from earlier work
[5] = tested on: IFN-α-accelerated NZB/W mouse model of lupus; details: cited from earlier work
IL-6 secretion (TLR7/8) = details: mice, mouse models of lupus; cited from earlier work
[6] = cited from earlier work
Caco-2 = details: cited from earlier work
[7] = cited from earlier work; remark: listed apart in the source
aldehyde oxidase enzyme = details: shown in vitro; cited from earlier work
[8] = phase I study in healthy participants; cited from earlier work

Compound: N#Cc1ccc(N2C[C@H](N)C[C@H](C(F)(F)F)C2)c2cccnc12 [enpatoran, Enpatoran]
- IIV CL/F [1]: 27.5 %CV
- IC90 ([2]; Homo sapiens): 0.0155 µg/mL (≈ 0.0484 µM)
- inhibition of cytokine release with increasing enpatoran concentrations ([2]; IL-6, complete inhibition): 100%
- Hill factor ([2]; ex vivo-stimulated IL-6): > 1.5
- IC60 ([2]; ex vivo-stimulated IL-6, derived from IC50 and Hill factor): 0.00559 µg/mL (≈ 0.0175 µM)
- IC90 ([3]; Homo sapiens): 0.0221 µg/mL (≈ 0.069 µM)
- inhibition of cytokine release with increasing enpatoran concentrations ([3]; IFN-α, complete inhibition): 100%
- Hill factor ([3]; ex vivo-stimulated IFN-α): > 1.5
- IC60 ([3]; ex vivo-stimulated IFN-α, derived from IC50 and Hill factor): 0.00843 µg/mL (≈ 0.0263 µM)
- doses suppressing disease development [4]: ≥ 1 mg/kg
- doses suppressing disease development [5]: ≥ 1 mg/kg
- lowest (minimally) efficacious dose (IL-6 secretion (TLR7/8)): 1 mg/kg
- logP [6]: 2
- Caco-2 permeability (Caco-2): 26 ×10⁻⁶ cm/s
- F (fraction of the oral dose systemically available) [7]: > 85%
- metabolic route (aldehyde oxidase enzyme): metabolism via the aldehyde oxidase enzyme
- tolerability [8]: well‐tolerated

From PMC9540480 (Clinical Pharmacology and Therapeutics, 2022)
